In patent US20230322767A1, “ARYL SUBSTITUTED PYRROLO-PYRIDINONES AND THERAPEUTIC USES THEREOF” (Bayer Aktiengesellschaft, priority 2020, published 2023):

What was measured:
CSNK1A1 = CSNK1A1 (Homo sapiens (Human), UniProt P48729); test: CSNK1A1 Assay 2 (ADP-Glo, 1 μM ATP); type: biochemical; conditions: median, read-out: CSNK1A1 Assay 2 IC50 [mol/l] (median)
Experimental: CSNK1A1-inhibitory activity of compounds of the present invention in presence of 1 μM adenosine-tri-phosphate (ATP) was quantified employing the CSNK1A1 assay as described in the following paragraphs. In essence, the enzyme activity is measured by quantification of the adenosine-di-phosphate (ADP), which is generated as a co-product of the enzyme reaction, via the “ADP-Glo™ Kinase Assay” kit from the company Promega. This detection system works as follows: In a first step the ATP not consumed in the kinase reaction is quantitatively converted to cAMP employing an adenylate cyclase (“ADP-Glo-reagent”), then the adenylate cyclase is stopped and the ADP generated in the kinase reaction converted to ATP which generates in a luciferase-based reaction a glow-luminescence signal (“Kinase Detection Reagent”).
As substrate for the kinase reaction the biotinylated peptide biotin-Ahx-KRRRAL-pS-VASLPGL (C-terminus in amide form) was used which can be purchased e.g. from the company Biosyntan (Berlin-Buch, Germany).
For the assay 50 nl of a 100 fold concentrated solution of the test compound in DMSO was pipetted into a white 1536-well microtiter plate (Greiner Bio-One, Frickenhausen, Germany), 2 μL of a solution of CSNK1A1 in aqueous assay buffer [50 mM HEPES pH 7.5, 10% (v/v) glycerol, 10 mM MgCl2, 50 mM NaCl, 1 mM dithiothreitol, 0.01% (w/v) bovine serum albumin, 0.01% (v/v) Triton X-100] were added and the mixture was incubated for 15 min at 22° C. to allow pre-binding of the test compounds to the enzyme before the start of the kinase reaction. […] The concentration of CSNK1A1 was adjusted depending of the activity of the enzyme lot and was chosen appropriate to have the assay in the linear range, a typical concentrations are about 0.0375 ng/μL. The reaction was stopped by the addition of 2.5 μL of “ADP-Glo-reagent” (1:1.5 fold diluted with water) and the resulting mixture was incubated at 22° C. for 1 h to convert the ATP not consumed in the kinase reaction completely […]. Subsequently 2.5 μL of the “kinase detection reagent” (1.2 fold more concentrated than recommended by the producer) were added, the resulting mixture was incubated at 22° C. for 1 h and then the luminescence measured with a suitable measurement instrument (e.g. Viewlux™ from Perkin-Elmer). The amount of emitted light was taken as a measure for the amount of ADP generated and thereby for the activity of the CSNK1A1.

CSNK1D = CSNK1D (Homo sapiens (Human), UniProt P48730); test: CSNK1D Assay (ADP-Glo, 1 μM ATP); type: biochemical; conditions: median, read-out: CSNK1D IC50 [mol/l] (median)
Experimental: CSNK1D-inhibitory activity of compounds of the present invention in presence of 1 μM adenosine-tri-phosphate (ATP) was quantified employing the CSNK1 D assay as described in the following paragraphs. In essence, the enzyme activity is measured by quantification of the adenosine-di-phosphate (ADP), which is generated as a co-product of the enzyme reaction, via the “ADP-Glo™ Kinase Assay” kit from the company Promega. This detection system works as follows: In a first step the ATP not consumed in the kinase reaction is quantitatively converted to cAMP employing an adenylate cyclase (“ADP-Glo-reagent”), then the adenylate cyclase is stopped and the ADP generated in the kinase reaction converted to ATP which generates in a luciferase-based reaction a glow-luminescence signal (“Kinase Detection Reagent”).
As substrate for the kinase reaction the biotinylated peptide Btn-Ahx-[…] (C-terminus in amide form) was used which can be purchased e.g. from the company Biosyntan (Berlin-Buch, Germany).
For the assay 50 nl of a 100 fold concentrated solution of the test compound in DMSO was pipetted into a white 1536-well microtiter plate (Greiner Bio-One, Frickenhausen, Germany), 2 μL of a solution of CSNK1D in aqueous assay buffer [50 mM HEPES pH 7.5, 10% (v/v) glycerol, 10 mM MgCl2, 50 mM NaCl, 1 mM dithiothreitol, 0.01% (w/v) bovine serum albumin, 0.01% (v/v) Triton X-100] were added and the mixture was incubated for 15 min at 22° C. to allow pre-binding of the test compounds to the enzyme before the start of the kinase reaction. […] The concentration of CSNK1D was adjusted depending of the activity of the enzyme lot and was chosen appropriate to have the assay in the linear range, a typical concentration is about 0.5 ng/μL. The reaction was stopped by the addition of 2.5 μL of “ADP-Glo-reagent” (1:1.5 fold diluted with water) and the resulting mixture was incubated at 22° C. for 1 h to convert the ATP not consumed in the kinase reaction completely […]. Subsequently 2.5 μL of the “kinase detection reagent” (1.2 fold more concentrated than recommended by the producer) were added, the resulting mixture was incubated at 22° C. for 1 h and then the luminescence measured with a suitable measurement instrument (e.g. Viewlux™ from Perkin-Elmer). The amount of emitted light was taken as a measure for the amount of ADP generated and thereby for the activity of the CSNK1D.

CSNK1D, sequence (P48730 whole entry): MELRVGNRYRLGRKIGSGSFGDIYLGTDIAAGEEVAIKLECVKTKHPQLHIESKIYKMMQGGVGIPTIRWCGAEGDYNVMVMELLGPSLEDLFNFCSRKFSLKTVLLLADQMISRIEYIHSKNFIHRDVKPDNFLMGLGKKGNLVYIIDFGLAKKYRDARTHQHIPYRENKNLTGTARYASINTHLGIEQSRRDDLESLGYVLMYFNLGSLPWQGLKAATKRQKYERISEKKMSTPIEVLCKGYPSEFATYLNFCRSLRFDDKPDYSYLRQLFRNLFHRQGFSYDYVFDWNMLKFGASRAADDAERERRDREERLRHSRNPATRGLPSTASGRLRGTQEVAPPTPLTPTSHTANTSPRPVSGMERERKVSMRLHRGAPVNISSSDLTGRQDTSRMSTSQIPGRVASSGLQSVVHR
CSNK1A1, sequence (P48729 whole entry): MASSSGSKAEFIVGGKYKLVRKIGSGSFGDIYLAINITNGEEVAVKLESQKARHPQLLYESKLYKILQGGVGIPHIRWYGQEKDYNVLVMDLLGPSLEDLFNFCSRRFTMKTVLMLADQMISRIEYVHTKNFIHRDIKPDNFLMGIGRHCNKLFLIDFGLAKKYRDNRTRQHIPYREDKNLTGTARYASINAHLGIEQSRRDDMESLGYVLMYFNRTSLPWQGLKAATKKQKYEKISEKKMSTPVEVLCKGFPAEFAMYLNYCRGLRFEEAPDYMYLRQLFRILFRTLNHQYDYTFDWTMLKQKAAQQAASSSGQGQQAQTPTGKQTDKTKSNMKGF

Structure (SMILES)	IC50 (CSNK1A1) [nM]	IC50 (CSNK1D) [nM]
CN1CCc2[nH]c(-c3ccnc(NC(=O)C(CC(F)F)c4ccc(F)cc4)c3)c(-c3ccccc3)c2C1=O (racemic) [Example 2, 4,4-difluoro-2-(4-fluorophenyl)-N-[4-(5-methyl-4-oxo-3-phenyl-4,5,6,7-tetrahydro-1H-pyrrolo[3,2-c]pyridin-2-yl)pyridin-2-yl]butanamide]	1.7	3.3
CN1CCc2[nH]c(-c3ccnc(NC(=O)C(CC(F)F)c4ccc(F)cc4)c3)c(-c3cccnc3)c2C1=O (racemic) [Example 9, 4,4-difluoro-2-(4-fluorophenyl)-N-{4-[5-methyl-4-oxo-3-(pyridin-3-yl)-4,5,6,7-tetrahydro-1H-pyrrolo[3,2-c]pyridin-2-yl]pyridin-2-yl}butanamide]	7.8	9.2
CC(C(=O)Nc1cc(-c2[nH]c3c(CC(F)(F)F)cn(C)c(=O)c3c2-c2ccccc2)ccn1)c1ccc(F)cc1 (racemic) [Example 14, 2-(4-fluorophenyl)-N-{4-[5-methyl-4-oxo-3-phenyl-7-(2,2,2-trifluoroethyl)-4,5-dihydro-1H-pyrrolo[3,2-c]pyridin-2-yl]pyridin-2-yl}propanamide]	4.7	2.7
Cn1cc(CC(F)(F)F)c2[nH]c(-c3ccnc(NC(=O)C(CC(F)F)c4ccc(F)cc4)c3)c(-c3ccccc3)c2c1=O (racemic) [Example 18, 4,4-difluoro-2-(4-fluorophenyl)-N-{4-[5-methyl-4-oxo-3-phenyl-7-(2,2,2-trifluoroethyl)-4,5-dihydro-1H-pyrrolo[3,2-c]pyridin-2-yl]pyridin-2-yl}butanamide]	5.9	3.1
CC(C(=O)Nc1cc(-c2[nH]c3c(CC(F)(F)F)cn(C)c(=O)c3c2-c2ccc(F)cc2)ccn1)c1ccc(F)cc1 (racemic) [Example 22, 2-(4-fluorophenyl)-N-{4-[3-(4-fluorophenyl)-5-methyl-4-oxo-7-(2,2,2-trifluoroethyl)-4,5-dihydro-1H-pyrrolo[3,2-c]pyridin-2-yl]pyridin-2-yl}propanamide]	6.2	3.2
Cn1cc(CC(F)(F)F)c2[nH]c(-c3ccnc(NC(=O)C(CC(F)F)c4ccc(F)cc4)c3)c(-c3ccc(F)cc3)c2c1=O (racemic) [Example 26, 4,4-difluoro-2-(4-fluorophenyl)-N-{4-[3-(4-fluorophenyl)-5-methyl-4-oxo-7-(2,2,2-trifluoroethyl)-4,5-dihydro-1H-pyrrolo[3,2-c]pyridin-2-yl]pyridin-2-yl}butanamide]	11	7.1
Cc1cn(C)c(=O)c2c(-c3ccc(F)cc3)c(-c3ccnc(NC(=O)C(C)c4ccc(F)cc4)c3)[nH]c12 (racemic) [Example 30, 2-(4-fluorophenyl)-N-{4-[3-(4-fluorophenyl)-5,7-dimethyl-4-oxo-4,5-dihydro-1H-pyrrolo[3,2-c]pyridin-2-yl]pyridin-2-yl}propanamide]	5.7	3.8
Cc1cn(C)c(=O)c2c(-c3ccc(F)cc3)c(-c3ccnc(NC(=O)C(CC(F)F)c4ccc(F)cc4)c3)[nH]c12 (racemic) [Example 34, 4,4-difluoro-2-(4-fluorophenyl)-N-{4-[3-(4-fluorophenyl)-5,7-dimethyl-4-oxo-4,5-dihydro-1H-pyrrolo[3,2-c]pyridin-2-yl]pyridin-2-yl}butanamide]	5.8	5.3
Cc1cn(C)c(=O)c2c(-c3ccccc3)c(-c3ccnc(NC(=O)C(C)c4ccc(F)cc4)c3)[nH]c12 (racemic) [Example 38, N-[4-(5,7-dimethyl-4-oxo-3-phenyl-4,5-dihydro-1H-pyrrolo[3,2-c]pyridin-2-yl)pyridin-2-yl]-2-(4-fluorophenyl)propanamide]	7.8	7.1
Cc1cn(C)c(=O)c2c(-c3ccccc3)c(-c3ccnc(NC(=O)C(CC(F)F)c4ccc(F)cc4)c3)[nH]c12 (racemic) [Example 40, N-[4-(5,7-dimethyl-4-oxo-3-phenyl-4,5-dihydro-1H-pyrrolo[3,2-c]pyridin-2-yl)pyridin-2-yl]-4,4-difluoro-2-(4-fluorophenyl)butanamide]	4	4
